From patent US8148339B2, “Method of reducing cardiac levels of doxorubicin when given as orotate salt” (Savvipharm Inc, priority 2006, dated 2012)
Where a name gives a salt, the structure may show the parent alone.

Experiments:
[1] = test system: CAKI-1 human renal tumor xenografts; settings: i.v., equivalent dosages
[2] = in vivo; cited from earlier work
[3] = cumulative dose; cited from earlier work
[4] = in vivo; settings: male, athymic NCr-nu/nu, mouse, iv, 8 mg/kg

| concentration at 1 day after the last injection (day 26) [4] [ng/g] | Structure (SMILES) | difference in tumor growth, DOX orotate compared with DOX [1] | AUC [2] [µg·h/mL] | total dosage at which irreversible myocardial toxicity leading to congestive heart failure may be encountered [3] [mg/m^2] |
| --- | --- | --- | --- | --- |
| – | COc1cccc2c1C(=O)c1c(O)c3c(c(O)c1C2=O)C[C@@](O)(C(=O)CO)C[C@@H]3O[C@H]1C[C@H](N)[C@H](O)[C@H](C)O1.O=C(O)c1cc(=O)[nH]c(=O)[nH]1 [DOX orotate, doxorubicin orotate] | no significant difference | – | – |
| 7400 | COc1cccc2c1C(=O)c1c(O)c3c(c(O)c1C2=O)C[C@@](O)(C(=O)CO)C[C@@H]3O[C@H]1C[C@H](N)[C@H](O)[C@H](C)O1 [DOX, (85, 105)-10-[(3-amino-2,3,6-trideoxy-(c-L-lyxo-hexopyranosyl)oxy]-8-glycolyl 1-7,8,9,10-tetrahydro-6,8,11-trihydroxy-1-methoxy-5,12-naphthacenedione hydrochloride] | – | 9900 | ~550 |
